Experimental data taken from patent publication US8324172B2, “G protein coupled receptor agonists and antagonists and methods of activating and inhibiting G protein coupled receptors using the same” (Tufts Medical Center, Inc., priority 2000, dated 2012).
Where a chain is given by its changes, count along the chain named. “Also recorded” adds a separate entry of the source. Where a SMILES comes first, the peptide text is derived from it. The star is where a group is joined. Palmitoyl = CCCCCCCCCCCCCCCC(=O)*

Experiments:
[1] = target: T1, MC4R (Homo sapiens, UniProt P32245); experiment: Adenylate cyclase activity in COS7 fibroblasts transfected with MC4R; type: cell-based
T1 construct: expressed in transfected cells; host or cells: COS7, transient

[2] = target: T2, substance P (Sub-P) (Homo sapiens, UniProt P25103); experiment: InsP formation in COS7 cells expressing substance P receptor; type: cell-based
T2 construct: expressed in transfected cells; host or cells: COS7, transient

[3] = test system: delta377 PAR1; experiment: InsP formation in COS7 cells expressing delta377 (C-tail deleted) PAR1 mutant; type: cell-based, human
[4] = target: T3, cholecystokinin A (CCKA) (Homo sapiens, UniProt P32238); experiment: InsP formation in COS7 cells expressing CCKA; type: cell-based
T3 construct: expressed in transfected cells; host or cells: COS7, transient
T3 sequence (P32238 1-428): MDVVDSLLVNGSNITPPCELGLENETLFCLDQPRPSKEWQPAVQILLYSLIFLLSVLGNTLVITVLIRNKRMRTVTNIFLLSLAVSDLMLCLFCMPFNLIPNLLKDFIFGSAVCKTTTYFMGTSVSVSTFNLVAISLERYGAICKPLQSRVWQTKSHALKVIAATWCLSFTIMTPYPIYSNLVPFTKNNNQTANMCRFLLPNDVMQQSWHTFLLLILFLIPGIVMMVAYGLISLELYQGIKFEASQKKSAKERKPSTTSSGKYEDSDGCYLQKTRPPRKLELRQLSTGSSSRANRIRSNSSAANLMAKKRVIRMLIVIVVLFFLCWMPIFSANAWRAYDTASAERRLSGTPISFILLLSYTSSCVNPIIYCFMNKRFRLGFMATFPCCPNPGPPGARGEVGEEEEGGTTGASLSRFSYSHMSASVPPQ

[5] = target: T4, somatostatin receptor (SSTR2) (Rattus norvegicus, UniProt P30680); experiment: InsP formation in COS7 cells expressing SSTR2; type: cell-based; conditions: COS7 cells
T4 construct: expressed in transfected cells; host or cells: COS7, transient

[6] = target: T5, cholecystokinin B (CCKB) (Homo sapiens, UniProt P32239); experiment: InsP formation in COS7 cells expressing CCKB; type: cell-based
T5 construct: expressed in transfected cells; host or cells: COS7, transient
T5 sequence (P32239 1-447): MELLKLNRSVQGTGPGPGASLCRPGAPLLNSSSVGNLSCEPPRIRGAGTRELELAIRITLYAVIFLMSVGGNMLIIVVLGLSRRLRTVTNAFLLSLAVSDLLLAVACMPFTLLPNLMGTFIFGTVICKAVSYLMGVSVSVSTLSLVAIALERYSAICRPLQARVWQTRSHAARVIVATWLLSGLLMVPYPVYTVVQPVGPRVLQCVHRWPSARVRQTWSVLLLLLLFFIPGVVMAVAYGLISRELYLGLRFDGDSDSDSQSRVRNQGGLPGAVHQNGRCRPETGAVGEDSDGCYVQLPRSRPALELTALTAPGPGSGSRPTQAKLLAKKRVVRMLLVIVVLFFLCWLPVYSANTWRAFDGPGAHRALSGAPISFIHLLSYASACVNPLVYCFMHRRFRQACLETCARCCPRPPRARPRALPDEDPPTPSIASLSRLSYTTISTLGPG

[7] = test system: human platelets
[8] = target: T6, PAR4 (Homo sapiens, UniProt Q96RI0); experiment: InsP formation in COS7 cells expressing PAR4; type: cell-based; design: expressed in transfected cells; host or cells: COS7, transient; conditions: COS7 cells
T6 sequence (Q96RI0 18-385): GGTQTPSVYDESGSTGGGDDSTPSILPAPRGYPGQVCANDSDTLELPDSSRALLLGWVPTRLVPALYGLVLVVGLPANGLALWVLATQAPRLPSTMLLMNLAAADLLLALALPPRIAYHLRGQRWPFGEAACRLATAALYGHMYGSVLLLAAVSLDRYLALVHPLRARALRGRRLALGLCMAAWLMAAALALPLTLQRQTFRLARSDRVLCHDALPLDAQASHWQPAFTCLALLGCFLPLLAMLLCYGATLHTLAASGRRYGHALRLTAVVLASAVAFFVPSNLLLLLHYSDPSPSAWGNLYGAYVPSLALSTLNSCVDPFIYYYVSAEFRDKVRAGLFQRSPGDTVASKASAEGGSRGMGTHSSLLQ

[9] = target: T7, PAR1 (Homo sapiens, UniProt P25116); experiment: InsP formation (PLC-β) in Rat1 fibroblasts expressing human PAR1; type: cell-based
T7 construct: expressed in transfected cells
T7 sequence (P25116 22-425): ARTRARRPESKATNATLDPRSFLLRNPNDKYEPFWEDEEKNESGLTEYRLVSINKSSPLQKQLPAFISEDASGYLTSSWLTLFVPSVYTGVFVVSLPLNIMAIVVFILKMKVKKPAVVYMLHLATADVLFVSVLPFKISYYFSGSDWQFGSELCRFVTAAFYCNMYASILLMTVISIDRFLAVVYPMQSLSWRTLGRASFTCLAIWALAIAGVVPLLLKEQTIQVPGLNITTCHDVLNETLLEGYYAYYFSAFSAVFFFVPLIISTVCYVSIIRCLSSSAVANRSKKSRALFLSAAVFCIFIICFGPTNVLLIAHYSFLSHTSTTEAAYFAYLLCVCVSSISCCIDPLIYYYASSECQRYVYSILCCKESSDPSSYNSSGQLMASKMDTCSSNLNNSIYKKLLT

[10] = target: T7, PAR1; experiment: Inhibition of PAR1-dependent platelet Ca2+ signal; type: cell-based; conditions: SFLLRN (or thrombin) after peptide pre-treatment
Procedure: Platelet Ca2+ measurements were performed as in Example 1.
The integrated Ca^2+ response for the individual treatments are relative to the full Ca^2+ responses for each agonist (100%) recorded in the absence of P4pal-10 (top trace).

[11] = target: T8, S309P PAR1 (Homo sapiens, UniProt P25116, S309P); experiment: InsP formation in COS7 cells expressing S309P PAR1 mutant; type: cell-based; conditions: relative to wild type PAR1
T8 construct: expressed in transfected cells; host or cells: COS7, transient
T8 sequence (P25116 22-425 S309P): T7 sequence (P25116 22-425) with S288P

[12] = target: T9, PAR2 (Homo sapiens, UniProt P55085); experiment: InsP formation in COS7 cells expressing PAR2; type: cell-based; conditions: 0.1-10 micromolar pepducin
T9 construct: expressed in transfected cells; host or cells: COS7 (transient)
T9 sequence (P55085 26-397): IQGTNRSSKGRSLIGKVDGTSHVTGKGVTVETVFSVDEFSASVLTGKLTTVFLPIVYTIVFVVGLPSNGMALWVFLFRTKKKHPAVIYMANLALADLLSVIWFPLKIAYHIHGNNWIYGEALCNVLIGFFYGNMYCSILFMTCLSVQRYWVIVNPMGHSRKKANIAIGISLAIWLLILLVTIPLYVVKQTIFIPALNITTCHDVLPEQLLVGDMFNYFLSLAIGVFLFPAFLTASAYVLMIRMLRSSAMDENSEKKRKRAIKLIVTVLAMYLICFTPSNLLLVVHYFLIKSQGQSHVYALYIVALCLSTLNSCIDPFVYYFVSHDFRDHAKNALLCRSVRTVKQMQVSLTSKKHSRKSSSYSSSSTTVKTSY

[13] = test system: platelets; experiment: Platelet intracellular Ca2+, agonist activity of peptides
[14] = test system: untransfected Rat1 cells / COS7 cells without PAR1; experiment: InsP formation in COS7 cells or Rat1 fibroblasts in the absence of the PAR1 receptor; type: cell-based; conditions: for InsP stimulation in the absence of the PAR1 receptor: COS7 cells or Rat1 fibroblasts
[15] = test system: thrombin receptors on human platelets; experiment: Inhibition of thrombin-induced human platelet aggregation; conditions: 3 nM thrombin; LBS1-PE at 25 micromolar

T1 sequence (P32245 whole entry): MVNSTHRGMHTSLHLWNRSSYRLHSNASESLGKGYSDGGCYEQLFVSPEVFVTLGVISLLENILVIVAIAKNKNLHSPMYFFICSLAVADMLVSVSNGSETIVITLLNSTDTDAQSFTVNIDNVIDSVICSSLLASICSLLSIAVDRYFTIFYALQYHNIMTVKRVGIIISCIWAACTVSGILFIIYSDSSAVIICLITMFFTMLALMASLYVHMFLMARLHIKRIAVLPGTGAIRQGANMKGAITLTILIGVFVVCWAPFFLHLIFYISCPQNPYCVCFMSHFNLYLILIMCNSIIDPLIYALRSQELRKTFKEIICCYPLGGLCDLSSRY
T2 sequence (P25103 whole entry): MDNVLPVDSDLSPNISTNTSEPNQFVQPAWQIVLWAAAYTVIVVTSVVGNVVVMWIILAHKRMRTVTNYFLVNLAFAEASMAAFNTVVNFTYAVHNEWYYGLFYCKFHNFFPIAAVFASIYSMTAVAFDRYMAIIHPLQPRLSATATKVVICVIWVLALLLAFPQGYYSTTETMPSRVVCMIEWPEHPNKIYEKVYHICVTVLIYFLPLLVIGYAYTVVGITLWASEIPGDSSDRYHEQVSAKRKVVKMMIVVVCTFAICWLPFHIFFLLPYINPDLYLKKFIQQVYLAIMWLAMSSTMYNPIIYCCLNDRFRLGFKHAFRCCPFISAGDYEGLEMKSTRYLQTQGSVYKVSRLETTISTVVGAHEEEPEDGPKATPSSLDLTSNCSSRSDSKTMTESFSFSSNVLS
T4 sequence (P30680 whole entry): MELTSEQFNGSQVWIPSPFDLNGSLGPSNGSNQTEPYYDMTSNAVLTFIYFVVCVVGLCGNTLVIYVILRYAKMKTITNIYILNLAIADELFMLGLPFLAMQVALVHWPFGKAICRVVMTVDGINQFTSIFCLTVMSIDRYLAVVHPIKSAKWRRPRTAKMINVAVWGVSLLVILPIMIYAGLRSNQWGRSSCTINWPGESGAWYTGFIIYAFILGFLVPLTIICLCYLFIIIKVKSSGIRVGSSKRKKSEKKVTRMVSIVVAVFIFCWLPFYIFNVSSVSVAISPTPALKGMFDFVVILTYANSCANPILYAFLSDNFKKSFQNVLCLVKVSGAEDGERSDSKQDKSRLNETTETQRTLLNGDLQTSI

CCCCCCCCCCCCCCCC(=O)N[C@H](C(=O)NCC(=O)N[C@@H](C)C(=O)N[C@H](C(=O)N[C@@H](CCCNC(=N)N)C(=O)N[C@@H](CCC(N)=O)C(=O)NCC(=O)N[C@@H](C)C(=O)N[C@@H](CC(N)=O)C(=O)N[C@@H](CCSC)C(=O)N[C@@H](CCCCN)C(=O)NCC(=O)N[C@@H](C)C(=O)N[C@H](C(N)=O)[C@@H](C)CC)[C@@H](C)CC)[C@@H](C)O [MC4pal-14] (Palmitoyl-TGAIRQGANMKGAI-NH2)
IC50 ([1]; read-out: IC50, inhibitory phase): ~10 µM
stimulation of adenylate cyclase activity (efficacy) ([1]; relative to alpha-MSH): 40%

CCCCCCCCCCCCCCCC(=O)N[C@@H](CCCNC(=N)N)C(=O)N[C@@H](CS)C(=O)N[C@@H](CC(C)C)C(=O)N[C@@H](CO)C(=O)N[C@@H](CO)C(=O)N[C@@H](CO)C(=O)N[C@@H](C)C(=O)N[C@H](C(=O)N[C@@H](C)C(=O)N[C@@H](CC(N)=O)C(=O)N[C@@H](CCCNC(=N)N)C(=O)N[C@@H](CO)C(=O)N[C@@H](CCCCN)C(=O)N[C@@H](CCCCN)C(=O)N[C@@H](CO)C(=O)N[C@@H](CCCNC(=N)N)C(=O)N[C@@H](C)C(=O)N[C@@H](CC(C)C)C(=O)N[C@@H](Cc1ccccc1)C(N)=O)C(C)C [Pepducin P1pal-19] (Palmitoyl-RCLSSSAVANRSKKSRALF-NH2)
activation of Sub-P receptor (InsP) [2]: does not activate
stimulation of PLC-beta with delta377 PAR1 mutant [3]: effectively no stimulation of PLC-beta
activation of CCKA (InsP) [4]: does not activate
activation of SSTR2 (InsP) [5]: does not activate
stimulation of CCKB, % of its maximal activity ([6]; maximum defined by 300 nM CCK-8): about 30%
agonist activity in platelet aggregation [7]: fully activates platelet aggregation
EC50 ([7]; read-out: EC50 of activation of platelet aggregation): 8 ± 3 µM
activation of PAR4 (InsP) [8]: does not activate
Agonist Efficacy [9]: 90 ± 2%
inhibition of PAR1-dependent Ca2+ response [10]: completely inhibits the subsequent Ca^2+i response
loss of efficacy on S309P mutant [11]: 4.3 fold
loss of potency on S309P mutant [11]: 13 fold
activation of PAR2 (InsP) [12]: robustly activate PAR2; also recorded: can fully activate
agonist activity, platelet intracellular Ca2+ [13]: causes a rapid Ca^2+i transient
InsP stimulation in the absence of the PAR1 receptor [14]: approximately 11%
stimulation of untransfected Rat1 cells (Rat1 alone) ([14]; attributed to endogenous rat PAR1): minor stimulation

CCCCCCCCCCCCCCCC(=O)N[C@@H](C)C(=O)N[C@H](C(=O)N[C@@H](C)C(=O)N[C@@H](CC(N)=O)C(=O)N[C@@H](CCCNC(=N)N)C(=O)N[C@@H](CO)C(=O)N[C@@H](CCCCN)C(=O)N[C@@H](CCCCN)C(=O)N[C@@H](CO)C(=O)N[C@@H](CCCNC(=N)N)C(=O)N[C@@H](C)C(=O)N[C@@H](CC(C)C)C(=O)N[C@@H](Cc1ccccc1)C(N)=O)C(C)C [Pepducin P1pal-13] (Palmitoyl-AVANRSKKSRALF-NH2)
activation of Sub-P receptor (InsP) [2]: did not activate
activation of CCKA (InsP) [4]: did not activate
activation of SSTR2 (InsP) [5]: did not activate
activation of CCKB (InsP) ([6]; COS7 cells): did not activate
activation of PAR4 (InsP) [8]: did not activate
Agonist Efficacy [9]: 60 − 88%
activation of PAR2 (InsP) [12]: did not activate
InsP stimulation in the absence of the PAR1 receptor [14]: approximately 11%

PAFISEDASGYL-C (PAFISEDASGYLC) [LBS1]
inhibition of aggregation [15]: did not inhibit
inhibition of PAR1-dependent Ca2+ response [10]: relatively poor antagonist
inhibition of PAR1-dependent Ca2+ response ([10]; listed as LBS-1): poor antagonist

SFLLRN
shift of potency on delta377 mutant ([3]; relative to wild type PAR1): ~30 fold
loss of efficacy on S309P mutant [11]: 3.3 fold
loss of potency on S309P mutant [11]: 28 fold
